{
  "source": "patent US6846182B1",
  "about": "“Dental bleaching composition and method” (priority 1996, dated 2005)",
  "protocol": "Fluoride has been used in dentistry to reduce sensitivity for many years. Often, when the root surface of teeth is exposed to the oral cavity due to gingival recession, these teeth become sensitive to hot, cold and sometimes sweets. […] This post bleaching pain usually has an onset of about 2 hours post-bleaching and lasts for 2 or more days.",
  "data": [
    {"substance": "neutral sodium fluoride", "values": [
      {"measurement": "post-bleaching pain level", "setting": "applied 5 minutes post bleaching", "value": "often diminished"},
      {"measurement": "post-bleaching sensitivity", "setting": "applied at least 10 minutes after bleaching is completed", "value": "almost completely eliminated"}
    ]}
  ]
}
